From article PMC10175918 (Communications Biology, 2023)
Read-outs that look alike come from different tables or passages of the source.

What was measured:
Assay in all cases: TGFα-shedding assay-based GPCR screening with chimeric Gα subunit proteins
Format in all cases: cell-based
Conditions in all cases: 10µM, Favipiravir 100μM
348 GPCRs [1] = molecular target: T1, 348 GPCRs (Homo sapiens, UniProt O75388)
T1 construct: expressed in transfected cells; host or cells: HEK293A

348 GPCRs [2] = molecular target: T2, 348 GPCRs (Homo sapiens, UniProt P22888)
T2 construct: expressed in transfected cells; host or cells: HEK293A

348 GPCRs [3] = molecular target: 348 GPCRs (Homo sapiens, UniProt P35462)
348 GPCRs [4] = molecular target: T3, 348 GPCRs (Homo sapiens, UniProt P49019)
T3 construct: expressed in transfected cells; host or cells: HEK293A

348 GPCRs [5] = molecular target: T4, 348 GPCRs (Homo sapiens, UniProt Q5T848)
T4 construct: expressed in transfected cells; host or cells: HEK293A
T4 sequence (Q5T848 24-1215): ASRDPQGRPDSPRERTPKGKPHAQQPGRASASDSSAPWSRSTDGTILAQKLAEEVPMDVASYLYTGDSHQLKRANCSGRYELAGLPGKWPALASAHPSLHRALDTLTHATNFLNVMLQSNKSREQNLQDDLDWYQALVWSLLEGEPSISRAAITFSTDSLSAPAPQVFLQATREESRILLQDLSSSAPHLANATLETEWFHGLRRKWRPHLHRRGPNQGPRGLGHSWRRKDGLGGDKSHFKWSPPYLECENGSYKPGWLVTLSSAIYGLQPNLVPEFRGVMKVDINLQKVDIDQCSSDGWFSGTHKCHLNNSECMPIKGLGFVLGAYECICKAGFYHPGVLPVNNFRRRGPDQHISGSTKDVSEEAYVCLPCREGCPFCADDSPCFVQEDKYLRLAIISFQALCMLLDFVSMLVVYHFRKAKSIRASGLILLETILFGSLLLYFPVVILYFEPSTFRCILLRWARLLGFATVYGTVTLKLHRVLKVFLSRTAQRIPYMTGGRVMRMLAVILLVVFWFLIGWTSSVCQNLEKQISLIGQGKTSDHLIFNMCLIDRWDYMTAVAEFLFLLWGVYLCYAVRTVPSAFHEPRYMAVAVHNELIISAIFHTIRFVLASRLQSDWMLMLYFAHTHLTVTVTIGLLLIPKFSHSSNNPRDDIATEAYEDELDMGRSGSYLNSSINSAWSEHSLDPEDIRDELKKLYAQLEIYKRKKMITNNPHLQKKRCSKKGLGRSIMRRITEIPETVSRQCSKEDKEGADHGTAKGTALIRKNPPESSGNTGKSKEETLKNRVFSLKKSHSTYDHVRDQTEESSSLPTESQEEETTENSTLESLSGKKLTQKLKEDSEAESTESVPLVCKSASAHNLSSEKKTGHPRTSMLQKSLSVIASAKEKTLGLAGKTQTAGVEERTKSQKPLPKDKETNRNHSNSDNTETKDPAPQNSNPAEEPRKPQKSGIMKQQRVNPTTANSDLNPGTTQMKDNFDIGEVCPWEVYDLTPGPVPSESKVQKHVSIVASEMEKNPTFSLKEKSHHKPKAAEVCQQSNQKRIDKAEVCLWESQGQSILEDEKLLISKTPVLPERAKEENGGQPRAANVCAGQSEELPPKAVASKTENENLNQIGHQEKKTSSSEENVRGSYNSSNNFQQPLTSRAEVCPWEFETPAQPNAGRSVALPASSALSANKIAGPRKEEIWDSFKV

348 GPCRs [6] = molecular target: T5, 348 GPCRs (Homo sapiens, UniProt Q8N6U8)
T5 construct: expressed in transfected cells; host or cells: HEK293A

348 GPCRs [7] = molecular target: T6, 348 GPCRs (Homo sapiens, UniProt Q9BXA5)
T6 construct: expressed in transfected cells; host or cells: HEK293A
T6 sequence (Q9BXA5 1-334): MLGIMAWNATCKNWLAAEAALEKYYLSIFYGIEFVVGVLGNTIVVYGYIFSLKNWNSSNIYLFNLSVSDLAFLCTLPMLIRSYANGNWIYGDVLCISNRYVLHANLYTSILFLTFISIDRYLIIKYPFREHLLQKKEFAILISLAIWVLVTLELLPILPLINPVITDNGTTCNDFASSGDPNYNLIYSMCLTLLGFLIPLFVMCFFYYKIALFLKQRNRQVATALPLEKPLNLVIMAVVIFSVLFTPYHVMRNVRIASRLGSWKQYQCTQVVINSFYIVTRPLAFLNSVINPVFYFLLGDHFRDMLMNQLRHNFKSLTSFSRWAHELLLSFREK

348 GPCRs [8] = molecular target: T7, 348 GPCRs (Homo sapiens, UniProt Q9P1P5)
T7 construct: expressed in transfected cells; host or cells: HEK293A
T7 sequence (Q9P1P5 1-351): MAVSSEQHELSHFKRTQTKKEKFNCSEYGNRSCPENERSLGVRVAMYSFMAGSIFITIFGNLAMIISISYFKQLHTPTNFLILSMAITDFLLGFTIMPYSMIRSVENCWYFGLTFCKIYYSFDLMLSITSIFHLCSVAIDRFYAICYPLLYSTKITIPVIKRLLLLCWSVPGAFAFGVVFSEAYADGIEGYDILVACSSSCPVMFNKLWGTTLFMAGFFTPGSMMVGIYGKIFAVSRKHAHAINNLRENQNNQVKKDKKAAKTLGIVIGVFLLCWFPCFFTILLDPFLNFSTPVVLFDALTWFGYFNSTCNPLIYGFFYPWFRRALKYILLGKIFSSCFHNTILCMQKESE

[9] = GPR32 (G protein-coupled receptor 32), read-out: % GPCR activation compared to TPA
[10] = LHCGR (luteinizing hormone/choriogonadotropin receptor), read-out: % GPCR activation compared to TPA
[11] = D3 (dopamine receptor D3), read-out: % GPCR activation compared to TPA
[12] = HCA3 (hydroxycarboxylic Acid Receptor 3), read-out: % GPCR activation compared to TPA
[13] = GPR158 (G Protein-Coupled Receptor 158), read-out: % GPCR activation compared to TPA
[14] = GPR161 (G protein-coupled receptor 161), read-out: % GPCR activation compared to TPA
[15] = SUCNR1 (succinate receptor 1), read-out: % GPCR activation compared to TPA
[16] = TAAR2 (trace amine associated receptor 2), read-out: % GPCR activation compared to TPA
[17] = read-out: % GPCR activation compared to TPA, GPR32 (G protein-coupled receptor 32)
[18] = read-out: % GPCR activation compared to TPA, LHCGR (luteinizing hormone/choriogonadotropin receptor)
[19] = read-out: % GPCR activation compared to TPA, D3 (dopamine receptor D3)
[20] = read-out: % GPCR activation compared to TPA, HCA3 (hydroxycarboxylic Acid Receptor 3)
[21] = read-out: % GPCR activation compared to TPA, GPR158 (G Protein-Coupled Receptor 158)
[22] = read-out: % GPCR activation compared to TPA, GPR161 (G protein-coupled receptor 161)
[23] = read-out: % GPCR activation compared to TPA, SUCNR1 (succinate receptor 1)
[24] = read-out: % GPCR activation compared to TPA, TAAR2 (trace amine associated receptor 2)

T3 sequence (P49019 whole entry): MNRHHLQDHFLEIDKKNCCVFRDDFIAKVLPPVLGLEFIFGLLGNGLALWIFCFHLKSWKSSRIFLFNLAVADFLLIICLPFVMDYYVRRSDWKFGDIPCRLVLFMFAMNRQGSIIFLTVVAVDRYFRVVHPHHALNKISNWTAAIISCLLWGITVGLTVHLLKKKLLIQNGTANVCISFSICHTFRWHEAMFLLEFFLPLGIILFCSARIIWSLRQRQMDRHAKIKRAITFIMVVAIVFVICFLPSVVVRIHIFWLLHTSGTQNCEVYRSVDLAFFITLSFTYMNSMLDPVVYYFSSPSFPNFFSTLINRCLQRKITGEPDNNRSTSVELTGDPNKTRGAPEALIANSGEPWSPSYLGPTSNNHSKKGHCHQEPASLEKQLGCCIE
T2 sequence (P22888 27-699): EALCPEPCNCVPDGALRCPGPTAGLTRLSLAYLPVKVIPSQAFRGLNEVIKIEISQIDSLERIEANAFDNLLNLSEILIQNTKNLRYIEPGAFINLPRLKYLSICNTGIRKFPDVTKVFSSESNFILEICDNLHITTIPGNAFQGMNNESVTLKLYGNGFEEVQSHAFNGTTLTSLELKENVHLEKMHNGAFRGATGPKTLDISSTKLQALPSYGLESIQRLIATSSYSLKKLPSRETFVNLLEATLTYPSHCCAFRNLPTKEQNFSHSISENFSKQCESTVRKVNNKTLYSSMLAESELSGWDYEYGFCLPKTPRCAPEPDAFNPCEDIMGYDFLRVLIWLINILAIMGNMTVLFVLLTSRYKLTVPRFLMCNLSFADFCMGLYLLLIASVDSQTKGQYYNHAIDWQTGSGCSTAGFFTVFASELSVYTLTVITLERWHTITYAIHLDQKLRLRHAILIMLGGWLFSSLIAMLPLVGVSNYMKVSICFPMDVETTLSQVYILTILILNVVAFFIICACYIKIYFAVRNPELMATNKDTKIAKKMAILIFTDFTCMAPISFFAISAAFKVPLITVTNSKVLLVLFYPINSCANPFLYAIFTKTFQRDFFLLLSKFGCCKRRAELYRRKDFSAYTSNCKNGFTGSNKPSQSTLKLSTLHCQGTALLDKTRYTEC
348 GPCRs (Homo sapiens, UniProt P35462), sequence (P35462 whole entry): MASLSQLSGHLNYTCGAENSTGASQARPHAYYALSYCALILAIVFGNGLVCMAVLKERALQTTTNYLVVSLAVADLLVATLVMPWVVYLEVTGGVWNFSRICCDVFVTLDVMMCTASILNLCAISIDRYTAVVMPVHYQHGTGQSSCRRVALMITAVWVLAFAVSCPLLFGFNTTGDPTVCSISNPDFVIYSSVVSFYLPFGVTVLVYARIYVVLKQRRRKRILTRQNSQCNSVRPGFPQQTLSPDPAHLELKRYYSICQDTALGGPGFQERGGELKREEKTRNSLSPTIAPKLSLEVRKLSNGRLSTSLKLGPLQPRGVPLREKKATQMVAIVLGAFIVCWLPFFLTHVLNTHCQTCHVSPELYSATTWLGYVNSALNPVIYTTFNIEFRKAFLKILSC
T1 sequence (O75388 whole entry): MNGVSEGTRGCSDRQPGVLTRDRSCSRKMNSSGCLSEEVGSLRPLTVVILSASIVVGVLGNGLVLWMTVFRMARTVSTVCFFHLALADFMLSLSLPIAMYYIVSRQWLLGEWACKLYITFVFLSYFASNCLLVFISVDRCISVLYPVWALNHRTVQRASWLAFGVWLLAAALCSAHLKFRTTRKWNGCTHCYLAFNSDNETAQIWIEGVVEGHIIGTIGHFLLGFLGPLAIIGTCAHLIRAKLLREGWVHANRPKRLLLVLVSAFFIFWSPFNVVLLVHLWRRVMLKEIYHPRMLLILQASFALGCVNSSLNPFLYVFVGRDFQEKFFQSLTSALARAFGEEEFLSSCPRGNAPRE
T5 sequence (Q8N6U8 whole entry): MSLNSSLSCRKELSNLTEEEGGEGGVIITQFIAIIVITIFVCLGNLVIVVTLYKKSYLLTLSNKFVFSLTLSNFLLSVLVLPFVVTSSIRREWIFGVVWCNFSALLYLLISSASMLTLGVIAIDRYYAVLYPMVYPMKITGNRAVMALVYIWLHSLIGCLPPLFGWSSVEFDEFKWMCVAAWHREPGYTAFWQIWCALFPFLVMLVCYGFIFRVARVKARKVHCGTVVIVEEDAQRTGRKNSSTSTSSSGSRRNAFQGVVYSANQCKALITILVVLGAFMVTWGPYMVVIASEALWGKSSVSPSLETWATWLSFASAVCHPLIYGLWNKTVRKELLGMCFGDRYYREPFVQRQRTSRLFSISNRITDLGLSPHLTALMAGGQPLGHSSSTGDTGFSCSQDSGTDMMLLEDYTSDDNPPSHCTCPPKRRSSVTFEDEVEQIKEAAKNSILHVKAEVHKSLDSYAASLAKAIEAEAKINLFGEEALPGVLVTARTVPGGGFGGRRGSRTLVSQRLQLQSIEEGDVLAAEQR

| Structure (SMILES) | activation at 10 µM (348 GPCRs [1]; [9]) | activation at 100 µM (348 GPCRs [2]; [10]) | activation at 100 µM (348 GPCRs [3]; [11]) | activation at 100 µM (348 GPCRs [4]; [12]) | activation at 10 µM (348 GPCRs [5]; [13]) | activation at 10 µM (348 GPCRs [6]; [14]) | activation at 10 µM (348 GPCRs [7]; [15]) | activation at 100 µM (348 GPCRs [8]; [16]) | activation at 10 µM (348 GPCRs [1]; [17]) | activation at 100 µM (348 GPCRs [2]; [18]) | activation at 100 µM (348 GPCRs [3]; [19]) | activation at 100 µM (348 GPCRs [4]; [20]) | activation at 10 µM (348 GPCRs [5]; [21]) | activation at 10 µM (348 GPCRs [6]; [22]) | activation at 10 µM (348 GPCRs [7]; [23]) | activation at 100 µM (348 GPCRs [8]; [24]) |
| --- | --- | --- | --- | --- | --- | --- | --- | --- | --- | --- | --- | --- | --- | --- | --- | --- |
| N#C[C@@]1(c2ccc3c(N)ncnn23)O[C@H](CO)[C@@H](O)[C@H]1O [GS441524] | 1.37% | 0.261% | 4.08% | -0.178% | 0.213% | -1.6% | -1.18% | -1.42% |  |  |  |  |  |  |  |  |
| CCC(CC)COC(=O)[C@H](C)N[P@](=O)(OC[C@H]1O[C@@](C#N)(c2ccc3c(N)ncnn23)[C@H](O)[C@@H]1O)Oc1ccccc1 [remdesivir] |  |  |  |  |  |  |  |  | 1.78% | 0.234% | 7.67% | -1.75% | 0.972% | -2.6% | -2.26% | 1.05% |
| CC(C)OC(=O)[C@H](C)N[P@](=O)(OC[C@H]1O[C@@H](n2ccc(=O)[nH]c2=O)[C@](C)(F)[C@@H]1O)Oc1ccccc1 [sofosbuvir] |  |  |  |  |  |  |  |  | -3.92% | 1.92% | -1.16% | -2.7% | 3.31% | -5.59% | -0.922% | -0.403% |
| NC(=O)c1nc(F)cnc1O [favipiravir, 6-fluoro-3-hydroxy-2-pyrazinecarboxamide] | 0.0718% | 0.315% | 7.52% | 0.282% | 2.24% | -0.46% | -2.99% | 0.753% |  |  |  |  |  |  |  |  |
| CC(C)C(=O)OC[C@H]1O[C@@H](n2ccc(NO)nc2=O)[C@H](O)[C@@H]1O [molnupiravir] | -4.1% | -0.797% | 0.0207% | -2.64% | 1.57% | -3.46% | -1.93% | -0.153% |  |  |  |  |  |  |  |  |
